The values below come from patent publication US20080261994A1, “CYCLOPROPANE COMPOUNDS AND PHARMACEUTICAL USE THEREOF” (Japan Tobacco Inc., priority 2003, published 2008).

Holding throughout (assay type): biochemical
One test deals with T1, Recombinant Human MMP-13 (Homo sapiens, UniProt P45452).
T1 construct: purchased R&D systems 511-MM
The test can be described thus: MMP-13 inhibitory activity (MMP-13 specific fluorescent substrate with quencher). The note with it: Recombinant Human MMP-13, fluorescent substrate, 25° C. for 1 h; read-out: IC50 MMP13 (Experimental Example 3). An outline of the steps: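 Recombinant human MMP-13 with test compound, reaction started with quenched fluorogenic peptide 7-MCA-Pro-CHA-Gly-NVal-His-Ala-DPA in Tris-HCl buffer, 1 h at 25 °C, stopped with acetic acid. Fluorescence at Ex 325/Em 405 nm; % inhibition versus enzyme-free and inhibitor-free wells, reported as IC50 (μM).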

The target in another test is T2, MMP-1 (Homo sapiens, UniProt P03956).
T2 sequence (P03956 100-469): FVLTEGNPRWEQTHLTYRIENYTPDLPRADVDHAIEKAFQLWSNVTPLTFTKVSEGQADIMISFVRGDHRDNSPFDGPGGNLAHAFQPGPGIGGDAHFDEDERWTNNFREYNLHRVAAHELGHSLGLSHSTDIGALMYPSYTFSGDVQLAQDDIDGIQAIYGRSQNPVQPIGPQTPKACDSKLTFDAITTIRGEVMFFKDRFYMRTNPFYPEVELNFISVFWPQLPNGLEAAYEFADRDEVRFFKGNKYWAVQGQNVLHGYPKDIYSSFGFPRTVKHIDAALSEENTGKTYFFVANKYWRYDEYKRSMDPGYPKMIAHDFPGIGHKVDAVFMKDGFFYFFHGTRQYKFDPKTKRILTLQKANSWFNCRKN
The test can be described thus: MMP-1 inhibitory action (Type I collagen Activity Measurement kit, FITC-labeled collagen type I). As to conditions: MMP-1 inhibitory action, FITC-labeled collagen type I, 37° C. for 3 hr; read-out: IC50 MMP1 (Experimental Example 2).

For a further test, the target named is T3, aggrecanase-1 (Homo sapiens, UniProt O75173).
T3 sequence (O75173 213-837): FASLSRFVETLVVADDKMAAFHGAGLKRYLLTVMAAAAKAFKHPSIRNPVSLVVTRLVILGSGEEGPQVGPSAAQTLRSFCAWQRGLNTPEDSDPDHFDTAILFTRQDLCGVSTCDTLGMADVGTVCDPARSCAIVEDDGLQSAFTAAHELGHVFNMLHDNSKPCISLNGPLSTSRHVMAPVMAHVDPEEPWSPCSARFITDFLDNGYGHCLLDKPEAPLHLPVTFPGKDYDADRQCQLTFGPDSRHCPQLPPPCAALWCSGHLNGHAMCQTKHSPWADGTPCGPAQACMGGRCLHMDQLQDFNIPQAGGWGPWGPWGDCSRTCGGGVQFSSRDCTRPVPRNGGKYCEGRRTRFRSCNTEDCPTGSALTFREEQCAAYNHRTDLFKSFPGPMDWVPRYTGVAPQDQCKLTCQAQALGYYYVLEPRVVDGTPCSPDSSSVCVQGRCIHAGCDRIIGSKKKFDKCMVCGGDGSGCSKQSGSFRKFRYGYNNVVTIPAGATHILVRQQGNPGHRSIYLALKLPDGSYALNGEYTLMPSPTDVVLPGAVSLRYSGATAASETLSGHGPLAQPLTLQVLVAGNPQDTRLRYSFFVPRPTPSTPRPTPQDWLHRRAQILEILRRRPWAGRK
The test can be described thus: Aggrecanase-1 inhibitory action (Particle Assay, GAG release from aggrecan-containing polyacrylamide particles). As to conditions: aggrecanase-1 inhibitory action; read-out: IC50 AG1 (Experimental Example 1). An outline of the steps: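 Enzyme and compound incubated with aggrecan-containing polyacrylamide particles in Tris-HCl buffer at 37° C for 15 h. Released GAG in supernatant measured with 1,9-dimethylmethylene blue at 595 nm against chondroitin sulfate standard; % inhibition from enzyme-free and inhibitor-free wells, reported as TC50 (μM).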

As for `CCC(=O)c1ccc(S(=O)(=O)NC2(C(=O)O)CC2c2ccccc2)s1` (stereo not drawn) [Example 2-116], the half-inhibitory concentration (IC50) at Recombinant Human MMP-13, on MMP-1 and at aggrecanase-1 was at least 10000 nM each time.
In the case of `CCCC(=O)c1ccc(S(=O)(=O)NC2(C(=O)O)CC2c2ccccc2)s1` (stereo not drawn) [Example 2-117], the IC50 on Recombinant Human MMP-13, on MMP-1 and at aggrecanase-1 was at least 10000 nM throughout.
With `O=C(O)[C@]1(NS(=O)(=O)c2ccc(-c3cc(C(F)F)sn3)s2)C[C@@H]1c1ccccc1` [Example 2-119], the values for the half-maximal inhibitory concentration (IC50) on Recombinant Human MMP-13, at MMP-1 and at aggrecanase-1 were below 100 nM, below 1000 nM and below 100 nM, respectively.
For `O=C(O)[C@]1(NS(=O)(=O)c2ccc(-c3cc(CF)sn3)s2)C[C@@H]1c1ccccc1` [Example 2-120], the concentration for half-maximal inhibition (IC50) was below 100 nM on Recombinant Human MMP-13, below 1000 nM at MMP-1 and below 100 nM on aggrecanase-1.
Consider `C[C@]1(c2ccccc2)C[C@@]1(NS(=O)(=O)c1ccc(-c2cc(CF)sn2)s1)C(=O)O` [Example 2-121], for which the values for the IC50 on Recombinant Human MMP-13, at MMP-1 and on aggrecanase-1 were below 100 nM, below 1000 nM and below 100 nM, respectively.
Turning to `CC(C)C1(c2ccccc2)CC1(NS(=O)(=O)c1ccc(-c2ccc(Cl)cc2)s1)C(=O)O` (stereo not drawn) [Example 2-123], the concentration for half-maximal inhibition (IC50) is below 1000 nM at Recombinant Human MMP-13, at least 10000 nM at MMP-1 and below 1000 nM on aggrecanase-1.
As to `CC(F)(F)c1cc(-c2ccc(S(=O)(=O)N[C@@]3(C(=O)O)C[C@@H]3c3ccccc3)s2)ns1` [Example 2-124], the results for the IC50 on Recombinant Human MMP-13, on MMP-1 and at aggrecanase-1 were below 100 nM, at least 1000 nM and below 100 nM, respectively.
Turning to `O=C(O)C1(NS(=O)(=O)N2CCc3c([nH]c4ccccc34)C2)CC1c1ccccc1` (stereo not drawn) [Example 2-125], the IC50 at Recombinant Human MMP-13, at MMP-1 and on aggrecanase-1 was at least 10000 nM in each case.
For the compound `O=C(O)C1(NS(=O)(=O)N2CCn3c(nnc3-c3ccccc3)C2)CC1c1ccccc1` (stereo not drawn) [Example 2-126], the IC50 on Recombinant Human MMP-13, on MMP-1 and at aggrecanase-1 was at least 10000 nM throughout.
As for `O=C(O)C1(NS(=O)(=O)N2CCC(Oc3ccc(Cl)cc3)CC2)CC1c1ccccc1` (stereo not drawn) [Example 2-128], the concentration for half-maximal inhibition (IC50) at Recombinant Human MMP-13, on MMP-1 and on aggrecanase-1 was at least 10000 nM throughout.
Turning to `CCC1(c2ccccc2)CC1(NS(=O)(=O)c1ccc(-c2ccc(Cl)cc2)s1)C(=O)O` (stereo not drawn) [Example 2-129], the half-maximal inhibitory concentration (IC50) on Recombinant Human MMP-13 was below 1000 nM; on MMP-1, at least 10000 nM; on aggrecanase-1, below 1000 nM.
In the case of `CC(C)(O)C#Cc1ccc(S(=O)(=O)N[C@@]2(C(=O)O)C[C@@H]2c2ccccc2)s1` [Example 2-130], the figures for the concentration for half-maximal inhibition (IC50) on Recombinant Human MMP-13, on MMP-1 and at aggrecanase-1 were at least 1000 nM, at least 10000 nM and at least 1000 nM, respectively.
In the case of `C[C@]1(c2ccccc2)C[C@@]1(NS(=O)(=O)c1ccc(-c2ccc(Cl)cn2)s1)C(=O)O` [Example 2-131], the IC50 is below 1000 nM on Recombinant Human MMP-13, at least 1000 nM on MMP-1 and below 100 nM on aggrecanase-1.
The corresponding values for `CC(C)(C)C#Cc1ccc(S(=O)(=O)N[C@@]2(C(=O)O)C[C@@H]2c2ccccc2)s1` [Example 2-132] are at least 10000 nM, at least 10000 nM and at least 10000 nM.
The corresponding values for `CCCC#Cc1ccc(S(=O)(=O)N[C@@]2(C(=O)O)C[C@@H]2c2ccccc2)s1` [Example 2-133] are below 1000 nM, at least 10000 nM and at least 10000 nM.
The corresponding values for `O=C(O)[C@]1(NS(=O)(=O)c2ccc(-c3cccc(C(F)(F)F)c3)s2)C[C@@H]1c1ccccc1` [Example 2-134] are below 1000 nM, at least 10000 nM and at least 10000 nM.
As to `O=C(O)[C@]1(NS(=O)(=O)c2ccc(-c3ccc(Cl)cc3)s2)C[C@@H]1c1cccc(Br)c1` [Example 2-136], the IC50 was below 100 nM on Recombinant Human MMP-13, at least 1000 nM at MMP-1 and below 1000 nM at aggrecanase-1.
Turning to `O=C(O)[C@]1(NS(=O)(=O)c2ccc(-c3cc(CF)on3)cc2)C[C@@H]1c1ccccc1` [Example 2-137], the IC50 is below 100 nM at Recombinant Human MMP-13, below 1000 nM at MMP-1 and at least 1000 nM on aggrecanase-1.

As a reminder, the IC50 is the point on the concentration scale where inhibition reaches its midpoint.
